Read-outs that look alike come from different tables or passages of the source.
Tests used:
DNA = tested on: DNA; set-up: method as in Tamir et al. [1996]; conditions: at least tenfold higher than NO-heme; ref Tamir et al. [1996]; cited from earlier work
[1] = tested on: V79 Chinese hamster lung fibroblasts; set-up: method as in Cajelli et al. ([1987]); conditions: ref Cajelli et al. ([1987]); cited from earlier work
[2] = tested on: Salmonella typhimurium strain TA100
Description: (§1) The Ames test was performed according to the pre-incubation method described by Mortelmans and Zeiger ([2000]), albeit with slight modifications. Briefly, the lyophilized Salmonella typhimurium strains TA100 (lot number 5220D, Trinova, Gießen, Germany) and TA1535 (lot number 5209D, Trinova) were cultured overnight in 50 ml nutrient broth no. 2 (Thermo Scientific) at 37 °C. Subsequently, the bacterial cultures were shaken for two hours at 125 rpm and 37 °C until the suspension reached an optical density of 1–1.3 at 600 nm. Then, 100 µl of the suspension were mixed with 500 µl of sodium phosphate buffer (final concentrations: 12 mM NaH2PO4, 88 mM Na2HPO4 [pH 7.4]; all components purchased from Carl Roth) and 50 µl of the test compound. Sodium azide (Sigma-Aldrich) was used as positive control and dissolved in ultrapure water. The bacteria were mixed and incubated with the test compounds for 30 min at 37 °C prior to being plated and further incubated for 48 h at 37 °C. Finally, the number of grown revertant colonies was counted.

[3] = tested on: Salmonella typhimurium strain TA1535
Description: as §1

[4] = exposure to UV light and oxygen (sunlight and air), room temperature
Description: For the analysis of stability, NO-heme was stored in 15 ml centrifuge tubes (Greiner Bio-One, Frickenhausen, Germany) under different light and atmospheric conditions. […] The final solution was further diluted in 80% acetone/H2O to a final volume of 12.5 ml and allocated to four centrifuge tubes containing 3 ml each. Two of the NO-heme samples were stored in the dark at room temperature, flushed with nitrogen and additionally sealed with thermoplastic film (Parafilm® M, Sigma-Aldrich). The other samples were incubated at room temperature and exposed to sunlight and air. The NO-heme content of each tube was analyzed by UV–Vis and FTIR spectroscopy after 0, 2, 4 and 24 h of incubation.

Caco-2 cells [5] = assay: WST-1 cytotoxicity assay; type: cell-based, human; conditions: 50 µM
Description: (§2) The cellular uptake of NO-heme and hematin was qualitatively investigated by using the expression of the intracellular heme-degrading protein heme oxygenase 1 (HO-1) as surrogate marker. Its expression was analyzed via SDS-PAGE and Western blotting in NO-heme-treated Caco-2 cells. Beforehand, the cytotoxicity of the heme species as well as solvents was evaluated using a commercial kit measuring cell viability based on the WST-1 reagent obtained from Roche Diagnostics (Mannheim, Germany) and performed according to the manufacturer's instructions. Briefly, 5 × 10^4 cells/well were seeded in 96-well plates (TPP) and incubated for 24 h. Then, the cells were treated with the test substances in triplicate for a further 24 h before they were washed with phosphate buffered saline (PBS) and incubated for 1.5 h with 100 μl/well medium supplemented with 10% (v/v) WST-1 reagent. Finally, absorption was measured at 450 nm (with a reference wavelength at 650 nm). For HO-1 expression analysis, Caco-2 cells (3 × 10^5/3.5 cm plate) were treated for 24 h as mentioned above, with 2% acetone/H2O and 2% acetone/NaOH serving as solvent controls. […] After final washings steps, proteins were detected with enhanced chemoluminescence using an Azure 300 CL imaging system (Azure biosystems, Dublin, USA). […]

CHO-K1 cells = type: cell-based, Chinese hamster
Description: (§3) The investigation of potential cytotoxic effects induced by NO-heme in CHO-K1 cells was performed using a commercial cell proliferation kit based on the MTT reagent obtained from Roche Diagnostics and performed according to the manufacturer's instructions. Briefly, 3.5 × 10^4 cells/well were seeded in 96-well plates (Greiner Diagnostic, Balingen, Germany). Approximately 24 h later, the cells were treated with different NO-heme and acetone concentrations for another 24 h. Subsequently, cells were incubated with the MTT solution for 4 h, before 100 µl DMSO (Carl Roth) were added and absorbance was measured at a wavelength of 570 nm using a microplate reader (EL600; BioTek Instruments, Winooski, USA). The mitochondrial metabolic activity of NO-heme-treated cells was thereby compared to the vehicle control. The HPRT assay was performed according to OECD test guideline no. 476 (OECD [2016]) without exogenous metabolic activation. Briefly, 5 × 10^5 cells per sample were seeded in a 75 cm^2 cell culture flask (Greiner Bio-One) containing 15 ml of McCoy’s 5A medium. […] After another period of 9 days, colonies resistant to 6-thioguanine were fixed with methanol (Carl Roth), stained with methylene blue (Carl Roth) and counted. For the final evaluation of the test, the absolute number of mutations per one million CHO-K1 cells was calculated.

[6] = tested on: heme oxygenase 1 (HO-1) in Caco-2 cells; assay: HO-1 expression as surrogate marker of cellular uptake (SDS-PAGE and Western blotting); type: cell-based, human; conditions: 50 and 100 µM, 24-h incubation, compared to control samples
Description: as §2

Caco-2 cells [7] = assay: Single cell electrophoresis assay (comet assay), Caco-2; type: cell-based, human; conditions: for genotoxic effects (tail intensity): Caco-2 cells, 1 h treatment, increasing concentrations of heme species, nitrite control 100 µM
Description: (§4) DNA-damaging effects of NO-heme were determined in Caco-2 and BALB/c 3T3 cells using the single cell electrophoresis assay (comet assay). […] The comet assay was performed as previously reported (Briviba et al. [2016]), with the following modifications: 2.15 × 10^4 cells/well were seeded in 6-well plates (Corning, Kennebunk, USA) and cultivated for five days. At day six after seeding, the cells were treated for 1 h with the different test substances diluted in Hank’s Balanced Salt Solution (HBSS; Lonza). Hydrogen peroxide and iron sulfate (both from Sigma-Aldrich) served as positive controls. After treatment, the cells were prepared as previously published (Briviba et al. [2016]) and incubated in a specific lysis buffer (100 mM Na2EDTA, 1% Triton X-100, […] NaCl, 1% lauroyl sarcosine sodium salt, 10 mM tris(hydroxymethyl)aminomethane [TRIS] and 10% dimethyl sulfoxide; all purchased from Merck, Darmstadt, Germany) for 1 h at 4 °C. Then, microscope slides were incubated in electrophoresis buffer (1 mM Na2EDTA, 300 mM NaOH; Merck) for 20 min at room temperature, followed by an electrophoresis run at 25 V and 300 mA for 40 min. Thereafter, the slides were washed three times with TRIS buffer (0.4 M; pH 7.5) and stained using 85 µl of a 4,6-diamidino-2-phenylindole solution (5 µg ml^−1; Merck). For quantification of the results, 100 cells per slide were analyzed using a DM 400 B fluorescence microscope (Leica, Wetzlar, Germany) connected to the Comet Assay II Image Analysis System (Perceptive Instruments, Halstedt, UK).

BALB/c 3T3 cells [8] = assay: BALB/c 3T3 cell transformation assay (CTA); conditions: for cell-transforming potential: controls 61.54 µM DHAA
Description: The CTA was performed as previously described (Sasaki et al. [2012a]) and began with the seeding of 2 × 10^4 BALB/c 3T3 cells in 100 mm dishes (TPP) filled with 10 ml MEM medium. On day 1, the cells were incubated with the test substances for three days, followed by a medium change on day 4. From now on, the cells were incubated in DMEM/HAM’s F-12 medium supplemented with 2% (v/v) FCS, 100 µg ml^−1 streptomycin, 100 IU ml^−1 penicillin (all components were obtained from Biochrom) and 2 µg ml^−1 bovine pancreas insulin solution (Sigma-Aldrich). On days 7, 10, 14, 17, 21 and 24, the medium was changed and the cells were finally fixed on day 31 using ice-cold methanol. Lastly, the plates were stained with Giemsa solution and the number of type III foci formed was counted using a stereo microscope (SZX2-ILLT; Olympus, Hamburg, Germany).

BALB/c 3T3 cells [9] = assay: Colony forming efficiency (CFE) cytotoxicity assay; conditions: for concentration at which cytotoxicity starts: CFE
Description: Briefly, 200 BALB/c 3T3 cells were seeded in 60 mm dishes (TPP) filled with 4 ml MEM medium. […] 3-Methylcholanthrene (MCA, Sigma-Aldrich) dissolved in DMSO was used as positive control. On day 4, the medium was removed and 4 ml fresh culture medium were added. On day 9, the cells were washed with saline, fixed with 4 ml ice-cold methanol (Carl Roth) for 10 min and then stained with Giemsa solution (Carl Roth) for 30 min. Finally, the stained dishes were washed with water and air-dried before cell colonies with a diameter of ≥ 2 mm were counted.

CHO-K1-BH4 cells = assay: In vitro mammalian cell gene mutation test (HPRT assay); type: cell-based, Chinese hamster; conditions: 4 h treatment, without metabolic activation, 100 µM as well as 200 µM heme species, nitrite control 100 µM
Description: as §3

murine cell lines = conditions: ref Kodama et al. [1976], Görsdorf et al. [1990]; cited from earlier work
[10] = ref Kodama et al. [1976]; Tsuda and Hasegawa [1990]; Stevanovic et al. [2000]; cited from earlier work
BALB/c 3T3 cells [11] = conditions: ref Kodama et al. [1976]; Tsuda and Hasegawa [1990]; Stevanovic et al. [2000]; cited from earlier work
BALB/c 3T3 cells [12] = assay: Single cell electrophoresis assay (comet assay), BALB/c 3T3; type: cell-based, murine; conditions: 1 h treatment; for increase of the tail intensity (genotoxic effect): heme species up to 100 µM, nitrite control 100 µM
Description: as §4

[13] = TA100, pre-incubation method, up to 300 µM NO-heme and hematin, 1.54 mM NaN3, 100 µM NaNO2
[14] = TA1535, pre-incubation method, up to 300 µM NO-heme and hematin, 1.54 mM NaN3, 100 µM NaNO2

O=NOO [peroxynitrite]
concentration needed to induce DNA strand breaks (DNA): 1000 µM

O=CCC=O [MDA, malondialdehyde]
mutagenicity in the HGPRT assay [1]: mutagenic potential

[N-]=[N+]=[N-].[Na+] [NaN3, Sodium azide]
mutagenic effects (revertant colonies) [2, 13]: Except for the positive control NaN3, no mutagenic effects were detected
mutagenic effects (revertant colonies) [3, 14]: Except for the positive control NaN3, no mutagenic effects were detected

nitrosylated heme [NO-heme]
time until absorbance signals in the UV–Vis spectrum are reduced [4]: two
relative cell viability (Caco-2 cells [5]): 43 % of the control
relative cell viability (CHO-K1 cells; 50 µM): 87%
relative cell viability (CHO-K1 cells; 200 µM): 59%
expression of HO-1 [6]: increased expression of HO-1
mutagenic effects (revertant colonies) [2, 13]: no mutagenic effects were detected
mutagenic effects (revertant colonies) [3, 14]: no mutagenic effects were detected
concentration needed to induce DNA strand breaks (Caco-2 cells [7]): 100 µM

O=N[O-].[Na+] [sodium nitrite, Sodium nitrite]
cell-transforming potential (BALB/c 3T3 cells [8]; 100 µM NaNO2): no cell-transforming potential
cell-transforming potential (BALB/c 3T3 cells [8]; 100 µM NaNO2, listed as nitrite): no genotoxic, mutagenic or cell-transforming effects
concentration at which cytotoxicity starts (BALB/c 3T3 cells [9]): 6000 µM
frequencies of mutations compared to the solvent controls (CHO-K1-BH4 cells): no genotoxic, mutagenic or cell-transforming effects
induction of DNA single strand breaks (murine cell lines): did not induce DNA single strand breaks
concentrations at which mutagenic in the HPRT assay [10]: 1000 to 10000 µM
concentrations leading to malignant transformation of BALB/c 3T3 cells (BALB/c 3T3 cells [11]): 1000 to 10000 µM
mutagenic effects (revertant colonies) [2]: no genotoxic, mutagenic or cell-transforming effects
mutagenic effects (revertant colonies) [3]: no genotoxic, mutagenic or cell-transforming effects
increase of the tail intensity (genotoxic effect) (BALB/c 3T3 cells [12]): no genotoxic, mutagenic or cell-transforming effects
genotoxic effects (tail intensity) (Caco-2 cells [7]): no genotoxic, mutagenic or cell-transforming effects

C=CC1=C(C)c2cc3[n-]c(cc4[n-]c(cc5nc(cc1n2)C(C)=C5C=C)c(C)c4CCC(=O)O)c(CCC(=O)O)c3C.O.[Fe+2] [hematin]
amount of type III foci compared to the corresponding solvent control (BALB/c 3T3 cells [8]; 150 µM, treatment for three days): significant increase
cytotoxicity (BALB/c 3T3 cells [9]; up to the maximum concentration of 200 µM): no sign of cytotoxicity
relative cell viability (Caco-2 cells [5]; Caco-2 cells, 24 h, WST-1): 45 % of the control
expression of HO-1 [6]: increased expression of HO-1
mutagenic effects (revertant colonies) [2, 13]: no mutagenic effects were detected
mutagenic effects (revertant colonies) [3, 14]: no mutagenic effects were detected
concentration range with statistically significant increase of tail intensity (BALB/c 3T3 cells [12]): 10 to 100 µM
increase of the tail intensity (genotoxic effect) (BALB/c 3T3 cells [12]): dose-dependent increase of the tail intensity with statistically significant effects
genotoxic effects (tail intensity) (Caco-2 cells [7]): exhibiting genotoxic effects

O=C1OC(C(O)CO)C(=O)C1=O (stereo not shown) [DHAA, dehydroascorbic acid]
cell-transforming potential (BALB/c 3T3 cells [8]; 100 µM NaNO2): no cell-transforming potential
concentration at which cytotoxicity starts (BALB/c 3T3 cells [9]): 750 µM
